We go through two molecules from patent US10336746B1, “RAD51 inhibitors” (Cyteir Therapeutics, Inc., priority 2017, dated 2019).

In general, EC50 refers to the concentration that produces a half-maximal response. The half-life is the time needed for the level to fall by half in the phase considered. Read a high half-life as slow decline.

Read-outs that look alike come from different tables or passages of the source. Some results are limits rather than exact numbers.

Data set [1] deals with WI-38 cells (AID negative). The experiment in a line: Primary screening cell killing assay repeated in WI-38 cells (AID negative). It is filed as cell-based. The note with it: Homo sapiens, 168 h, cell death on Day 7, Cell-Titer Glo. In a few lines: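 Cell-killing counter-screen in AID-negative WI-38 cells, probing RAD51 inhibition via AID/RAD51 synthetic lethality. Viability luminescence (RLU) was media-subtracted, normalized to DMSO wells, and converted to percent kill (1 − normalized RLU) × 100; EC50 came from non-linear regression on a semi-log scale.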

For data set [2], the system named is Caco-2 cells. Briefly: Bi-directional Caco-2 permeability. The following applies: Caco-2. It is filed as in vitro ADME. On the procedure: (§1) Bi-directional Caco-2 permeability was assayed. Caco-2 cells were seeded onto permeable polycarbonate supports and allowed to differentiate for about 3 weeks prior to being used in the assays. The cells were then exposed to the compounds from either the apical or basolateral sides and incubated at 37 C for up to 90 minutes under light agitation. Compound transport was then measured using LC/MS/MS analysis at 30, 60, and 90 minutes.
(In general: Passage across Caco-2 layers is used to estimate intestinal permeability.)

For data set [3], the system named is Daudi cell line (AID positive). Briefly: Primary screening cell killing assay, Daudi cell line (AID positive). The data set is classed as cell-based. The note with it: Homo sapiens, 168 h, cell death on Day 7, Cell-Titer Glo. In a few lines:
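AID-positive Daudi cells, 1250 per well, were exposed to serially diluted compounds for 7 days at 37° C. Viability read by CellTiter-Glo luminescence; percent cell death and EC50 derived against untreated wells after media-blank subtraction.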

Data set [4] deals with ARPE19/HPV16 (HPV Immortalized RPE). Briefly: Cell line screen, ARPE19/HPV16. The data set is classed as cell-based. The note with it: ARPE-19, AICDA Expression Negative. The protocol:
(§2) The activity of the claimed compounds was measured in a variety of cell lines with different expression levels of activation induced cytidine deaminase (AICDA). The potency assay was repeated in all of the listed cell lines and the EC50 values recorded.

Data set [5] deals with U-698-M (Lymphoma). The experiment in a line: Cell line screen, U-698-M. It is filed as cell-based. The note with it: AICDA Expression High. On the procedure: as §2
Data set [6] deals with WI-38 (Normal Human Lung Fibroblast). Briefly: Cell line screen, WI-38. The data set is classed as cell-based. The note with it: AICDA Expression Negative. The protocol: as §2
For data set [7], the system named is OV56 (Ovary). Briefly: Cell line screen, OV56. The following applies: AICDA Expression Low. It is filed as cell-based. The protocol:
as §2

The subject of data set [8] is TOV-1120D (Ovary). The experiment in a line: Cell line screen, TOV-1120D. It is filed as cell-based. The following applies: AICDA Expression Negative. On the procedure:
as §2

The test system of data set [9] is KYSE-510 (Head and Neck). Briefly: Cell line screen, KYSE-510. The data set is classed as cell-based. The following applies: Homo sapiens, AICDA Expression Negative. The protocol: as §2
Data set [10] relates to CCRF-SB (Leukemia). Briefly: Cell line screen, CCRF-SB. The data set is classed as cell-based. The following applies: Homo sapiens, AICDA Expression High. The protocol:
as §2

Data set [11] in a line: Human liver microsome stability. The note with it: human liver microsomes. It is filed as in vitro ADME. The protocol: The stability of the claimed compounds was determined in the presences of human liver microsomes. The compounds were incubated with the microsomes at 37° C. for 45 minutes. Samples were analyzed using LC-MS/MS. Data analysis included half-life, clearance rate, and the percentage of hepatic blood flow (% QH) for each of the compounds in the different species.
Background: Liver microsomes are vesicles of endoplasmic reticulum, rich in cytochrome P450 enzymes.

Data set [12] relates to KYSE-70 (Head and Neck). Briefly: Cell line screen, KYSE-70. The data set is classed as cell-based. The following applies: Homo sapiens, AICDA Expression Low. On the procedure:
as §2

Data set [13] deals with Daudi (Lymphoma). Briefly: Cell line screen, Daudi. It is filed as cell-based. The following applies: Homo sapiens, AICDA Expression High. On the procedure: as §2
For data set [14], the system named is WSU-FSCCL (Lymphoma). Briefly: Cell line screen, WSU-FSCCL. The data set is classed as cell-based. The note with it: AICDA Expression Negative. The protocol: as §2
The subject of data set [15] is KG-1 (Leukemia). Briefly: Cell line screen, KG-1. The data set is classed as cell-based. The following applies: AICDA Expression Negative. The protocol: as §2
Data set [16] can be described thus: Bi-directional Caco-2 permeability. The data set is classed as in vitro ADME. The following applies: human. On the procedure: as §1
Data set [17] can be described thus: Pharmacokinetic (PK) study, plasma by LC-MS. The following applies: po @ 80 mg/kg (30% PEG400, 10% Vitamin E TPGS in water); for half-life: plasma. The data set is classed as in vivo, Rat. The protocol: PK studies in mice were used to determine the fate of the compounds in a whole organism. Rats were treated with the compounds either orally of via IV at the indicated doses and followed for up to 24 hours. Plasma samples were taken at different time points and analyzed by LC-MS.

As for `CC(C)OC(=O)Nc1ccc(-c2cnc([C@@H]3CC[C@@H](NC(=O)OC(C)C)CO3)s2)c(S(=O)(=O)NC(C)(C)C)c1` (relative stereo) [Ex. 60, trans-isopropyl N-[6-[5-[2-(tert-butylsulfamoyl)-4-(isopropoxycarbonylamino)phenyl]thiazol-2-yl]tetrahydropyran-3-yl]carbamate], the values for the EC50 in data set [1] and in [3] were above 1000 nM and 100 to 1000 nM, respectively. Further, the “BA/AB Ratio” value in [2] is 0.9.
As to `CC(C)OC(=O)N[C@H]1CC[C@H](c2ncc(-c3ccc(NC(=O)NCc4ccccn4)cc3S(=O)(=O)NC(C)(C)C)s2)CC1` [Ex. 29, isopropyl ((1r,4r)-4-(5-(2-(N-(tert-butyl)sulfamoyl)-4-(3-(pyridin-2-ylmethyl)ureido)phenyl)thiazol-2-yl)cyclohexyl)carbamate], the EC50 is above 10000 nM in data set [4]; 113 nM in [5]; above 10000 nM in data set [6]; 9090 nM in [7]; above 1000 nM in [1]; 9170 nM in data set [8]. Also, the EC50 was above 10000 nM in data set [9]; 1280 nM in [10]; 4660 nM in data set [12]; 43 nM in data set [13]; 67 nM in data set [14]; above 10000 nM in [15]. This molecule had an EC50 in data set [3] of at most 100 nM. Besides, in data set [11], the “% QH (percentage of hepatic blood flow)” value is 78.8%. For the same molecule, the half-life in data set [11] (37° C., 45 minutes) is 0.342 h; in data set [17] (Rat Female) it was 4.66 h; in data set [17] (Rat Male), 3.97 h. In [11] (37° C., 45 minutes, read-out: Clearance (μg/min/mg)), the microsomal CLint is 68 µL/min/mg. For the same molecule, the recovery at 90 min in data set [16] (Caco-2, Caco-2, AB direction, read-out: AB Recovery %) was 93.9%; in data set [16] (Caco-2, Caco-2, BA direction, read-out: BA Recovery %), 90.9%. Moreover, the efflux ratio at 90 min in [16] (Caco-2, read-out: BA/AB Ratio) was found to be 2.2. In addition, in data set [16] (Caco-2, apical to basolateral, 37 C, up to 90 minutes, read-out: AB Papp (cm/sec × 10^6)), the Papp A→B at 90 min was 10.9 ×10⁻⁶ cm/s. Further, in data set [16] (Caco-2, basolateral to apical, 37 C, up to 90 minutes, read-out: BA Papp (cm/sec × 10^6)), the Papp B→A at 90 min was 24.1 ×10⁻⁶ cm/s. Moreover, the “F (%) @ 5 mg/kg” value in [17] (Rat Female) is given as 8.39%; in [17] (Rat Male), 3.69%.
